Assay results as given in PubChem BioAssay (NCI).
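Exposure lasted 48 hours, with cells grown in 96-well plates and compounds tested at five concentrations. Abbreviation: GI50, concentration required for 50% inhibition of growth. Definition used: TGI = concentration required for complete inhibition of growth.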

Assays:
Assay in all cases: inhibition of tumour cell growth, NCI panel, 48 h
NCI-H226 lung = test system: NCI-H226 lung
CAKI-1 renal = test system: CAKI-1 renal
OVCAR-8 ovarian = test system: OVCAR-8 ovarian
NCI-H23 lung = test system: NCI-H23 lung
MDA-MB-231 breast = test system: MDA-MB-231 breast
OVCAR-4 ovarian = test system: OVCAR-4 ovarian
HS 578T breast = test system: HS 578T breast
OVCAR-3 ovarian = test system: OVCAR-3 ovarian
SK-MEL-2 melanoma = test system: SK-MEL-2 melanoma
NCI/ADR-RES ovarian = test system: NCI/ADR-RES ovarian
COLO 205 colon = test system: COLO 205 colon
MALME-3M melanoma = test system: MALME-3M melanoma
U251 CNS = test system: U251 CNS
SK-OV-3 ovarian = test system: SK-OV-3 ovarian
HOP-62 NSCLC = test system: HOP-62 NSCLC
K-562 leukemia = test system: K-562 leukemia
MCF7 breast = test system: MCF7 breast
NCI-H522 lung = test system: NCI-H522 lung
PC-3 prostate = test system: PC-3 prostate
IGROV1 ovarian = test system: IGROV1 ovarian
786-0 renal = test system: 786-0 renal
M14 melanoma = test system: M14 melanoma
CCRF-CEM leukemia = test system: CCRF-CEM leukemia
HT29 colon = test system: HT29 colon
SK-MEL-28 melanoma = test system: SK-MEL-28 melanoma
A549 NSCLC = test system: A549 NSCLC
T-47D breast = test system: T-47D breast
UO-31 renal = test system: UO-31 renal
MOLT-4 leukemia = test system: MOLT-4 leukemia
NCI-H460 lung = test system: NCI-H460 lung
SN12C renal = test system: SN12C renal
LOX IMVI melanoma = test system: LOX IMVI melanoma
HOP-92 NSCLC = test system: HOP-92 NSCLC
RPMI-8226 leukemia = test system: RPMI-8226 leukemia
DU-145 prostate = test system: DU-145 prostate
BT-549 breast = test system: BT-549 breast
UACC-62 melanoma = test system: UACC-62 melanoma
HCT-15 colon = test system: HCT-15 colon
KM12 colon = test system: KM12 colon
SNB-75 CNS = test system: SNB-75 CNS
SW-620 colon = test system: SW-620 colon
HL-60(TB) leukemia = test system: HL-60(TB) leukemia
SF-295 CNS = test system: SF-295 CNS
EKVX NSCLC = test system: EKVX NSCLC
HCC-2998 colon = test system: HCC-2998 colon
RXF 393 renal = test system: RXF 393 renal
HCT-116 colon = test system: HCT-116 colon
SF-539 CNS = test system: SF-539 CNS
OVCAR-5 ovarian = test system: OVCAR-5 ovarian
ACHN renal = test system: ACHN renal
SF-268 CNS = test system: SF-268 CNS
MDA-MB-435 = test system: MDA-MB-435
A498 renal = test system: A498 renal
SK-MEL-5 melanoma = test system: SK-MEL-5 melanoma
SR leukemia = test system: SR leukemia
UACC-257 melanoma = test system: UACC-257 melanoma

SMILES: COc1cc(/C=C2\CN(C)C/C(=C\c3cc(CN4CCCCC4)c(O)c(OC)c3)C2=O)cc(CN2CCCCC2)c1O
- GI50 (NCI-H226 lung): 10.5 µM
- TGI (NCI-H226 lung): 25.9 µM
- GI50 (CAKI-1 renal): 4.62 µM
- TGI (CAKI-1 renal): 17.5 µM
- GI50 (OVCAR-8 ovarian): 3.12 µM
- TGI (OVCAR-8 ovarian): > 100 µM
- GI50 (NCI-H23 lung): 5.11 µM
- TGI (NCI-H23 lung): 21.4 µM
- GI50 (MDA-MB-231 breast): 3.18 µM
- TGI (MDA-MB-231 breast): 11.6 µM
- GI50 (OVCAR-4 ovarian): 4.77 µM
- TGI (OVCAR-4 ovarian): 54.1 µM
- GI50 (HS 578T breast): 3.27 µM
- TGI (HS 578T breast): 80.6 µM
- GI50 (OVCAR-3 ovarian): 3 µM
- TGI (OVCAR-3 ovarian): 10.4 µM
- GI50 (SK-MEL-2 melanoma): 3.53 µM
- TGI (SK-MEL-2 melanoma): 13.2 µM
- GI50 (NCI/ADR-RES ovarian): 6.24 µM
- TGI (NCI/ADR-RES ovarian): > 100 µM
- GI50 (COLO 205 colon): 1.96 µM
- TGI (COLO 205 colon): 3.74 µM
- GI50 (MALME-3M melanoma): 5.62 µM
- TGI (MALME-3M melanoma): 19.6 µM
- GI50 (U251 CNS): 3.1 µM
- TGI (U251 CNS): 13.2 µM
- GI50 (SK-OV-3 ovarian): 7.71 µM
- TGI (SK-OV-3 ovarian): 37.2 µM
- GI50 (HOP-62 NSCLC): 4.28 µM
- TGI (HOP-62 NSCLC): 18.4 µM
- GI50 (K-562 leukemia): 3.12 µM
- TGI (K-562 leukemia): 35.2 µM
- GI50 (MCF7 breast): 2.93 µM
- TGI (MCF7 breast): 13.9 µM
- GI50 (NCI-H522 lung): 2.68 µM
- TGI (NCI-H522 lung): 11.9 µM
- GI50 (PC-3 prostate): 4.36 µM
- TGI (PC-3 prostate): 26.2 µM
- GI50 (IGROV1 ovarian): 3.36 µM
- TGI (IGROV1 ovarian): 13.6 µM
- GI50 (786-0 renal): 3.92 µM
- TGI (786-0 renal): 14.5 µM
- GI50 (M14 melanoma): 3.02 µM
- TGI (M14 melanoma): 10.8 µM
- GI50 (CCRF-CEM leukemia): 2.77 µM
- TGI (CCRF-CEM leukemia): 7.52 µM
- GI50 (HT29 colon): 2.43 µM
- TGI (HT29 colon): 6.42 µM
- GI50 (SK-MEL-28 melanoma): 11.6 µM
- TGI (SK-MEL-28 melanoma): 24.5 µM
- GI50 (A549 NSCLC): 3.76 µM
- TGI (A549 NSCLC): 16.1 µM
- GI50 (T-47D breast): 5.72 µM
- TGI (T-47D breast): 24 µM
- GI50 (UO-31 renal): 3.78 µM
- TGI (UO-31 renal): 17.7 µM
- GI50 (MOLT-4 leukemia): 2.95 µM
- TGI (MOLT-4 leukemia): 10.7 µM
- GI50 (NCI-H460 lung): 2.18 µM
- TGI (NCI-H460 lung): 5.13 µM
- GI50 (SN12C renal): 3.24 µM
- TGI (SN12C renal): 12.8 µM
- GI50 (LOX IMVI melanoma): 2.34 µM
- TGI (LOX IMVI melanoma): 6.19 µM
- GI50 (HOP-92 NSCLC): 2.55 µM
- TGI (HOP-92 NSCLC): 9.21 µM
- GI50 (RPMI-8226 leukemia): 3.04 µM
- TGI (RPMI-8226 leukemia): 9.32 µM
- GI50 (DU-145 prostate): 3.88 µM
- TGI (DU-145 prostate): 13.7 µM
- GI50 (BT-549 breast): 4.61 µM
- TGI (BT-549 breast): 16.3 µM
- GI50 (UACC-62 melanoma): 7.2 µM
- TGI (UACC-62 melanoma): 20.3 µM
- GI50 (HCT-15 colon): 3.29 µM
- TGI (HCT-15 colon): 12.7 µM
- GI50 (KM12 colon): 2.17 µM
- TGI (KM12 colon): 4.97 µM
- GI50 (SNB-75 CNS): 1.99 µM
- TGI (SNB-75 CNS): 9.13 µM
- GI50 (SW-620 colon): 3.27 µM
- TGI (SW-620 colon): 12.6 µM
- GI50 (HL-60(TB) leukemia): 2.8 µM
- TGI (HL-60(TB) leukemia): 7.47 µM
- GI50 (SF-295 CNS): 4.52 µM
- TGI (SF-295 CNS): 17.1 µM
- GI50 (EKVX NSCLC): 4.57 µM
- TGI (EKVX NSCLC): 17.6 µM
- GI50 (HCC-2998 colon): 2.61 µM
- TGI (HCC-2998 colon): 12 µM
- GI50 (RXF 393 renal): 2.01 µM
- TGI (RXF 393 renal): 6.86 µM
- GI50 (HCT-116 colon): 2.5 µM
- TGI (HCT-116 colon): 8 µM
- GI50 (SF-539 CNS): 2.75 µM
- TGI (SF-539 CNS): 8.17 µM
- GI50 (OVCAR-5 ovarian): 2.29 µM
- TGI (OVCAR-5 ovarian): 5.81 µM
- GI50 (ACHN renal): 3.95 µM
- TGI (ACHN renal): 13.9 µM
- GI50 (SF-268 CNS): 3.97 µM
- TGI (SF-268 CNS): 17.4 µM
- GI50 (MDA-MB-435): 3.6 µM
- TGI (MDA-MB-435): 13.2 µM
- GI50 (A498 renal): 10.1 µM
- TGI (A498 renal): 22.7 µM
- GI50 (SK-MEL-5 melanoma): 13 µM
- TGI (SK-MEL-5 melanoma): 26.1 µM
- GI50 (SR leukemia): 3.15 µM
- TGI (SR leukemia): 9.37 µM
- GI50 (UACC-257 melanoma): 7.99 µM
- TGI (UACC-257 melanoma): 22 µM
